Tests used:
hERG = hERG (Homo sapiens (Human), UniProt Q12809); assay: hERG inhibition, whole-cell patch clamp; format: cell-based; details: HEK293 cells stably transfected with hERG
Protocol: For hERG inhibition assays, the cells used were HEK293 cells stably transfected with hERG (cell line obtained from Cytocentrics Inc. 3463 Magic Drive San Antonio, Tex. 78229). Composition of External Solution: NaCl, 137 mM; KCl, 4 mM; MgCl2, 1.0 mM; CaCl2, 1.8 mM; HEPES 10 mM; Dextrose 11 mM; Adjusted to a pH of 7.4 with NaOH. Composition of Internal Solution: KCl, 130.0 mM; MgCl2, 1.0 mM; HEPES, 5.0 mM; EGTA, 5.0 mM; NaCl 7.0 mM. Adjusted to a pH of 7.2 using KOH. Test Concentrations: 0.1, 1, 10, 100 μM. Vehicle: DMSO. Experiments were performed at 34+/−1° C. Current was recorded using the whole-cell patch clamp technique on the Cytopatch automated platform. hERG current was elicited with the following voltage protocol: hERG current amplitude was measured as the peak current at −50 mV (tail current). […] Each cell served as its own control. Data are presented as the IC50 calculated by non-linear regression analysis.

[1] = test system: CYP1A2, CYP2C9, CYP2C19, CYP3A4, CYP2D6; assay: Cyp inhibition in human liver microsomes (all isozymes); format: in vitro ADME
Protocol: For Cyp inhibition, human liver microsomes from BD Gentest were incubated with Compound 028 or Compound 032 (10, 3.33, 1.11, 0.37, 0.12, 0.04, 0.01 μM) and substrate (CYP1A2: Phenacetin at 30 μM; CYP2C9: Diclofenac at 10 μM; CYP2C19: S-Mephenytoin at 35 μM; CYP3A4: Midazolam at 5 μM and Testosterone at 80 μM; CYP2D6: Bufuralol at 10 μM) for the following incubation times: CYP1A2, 2C9, 2D6: 10 minutes, 37° C.; CYP2C19: 45 minutes, 37° C.; CYP3A4: 5 minutes, 37° C. Substrate conversion was measured by liquid chromatography/mass spectrometry/mass spectrometry (LC/MS/MS). Inhibition was calculated by curve fitting in Graph Pad Prism.

[2] = Rat pharmacokinetics, cassette dosing (IV and PO); format: in vivo; details: male SD rats; for bioavailability / IV clearance / AUC / Cmax / half-life: rat; for bioavailability: 5 mg/kg; for half-life: read-out: PO T½ (converted)
Protocol: Male SD rats were fasted overnight. Compounds of the invention were dissolved in dimethyl acetamide at 10 times the final concentration, then Solutol HS 15 (BASF) was added to a final concentration of 10%. Finally 80% saline was added and vortexed to achieve a clear solution. For the IV dosing three animals were injected via the foot dorsal vein with 1 mg/kg compound. For the PO dosing 5 mg/kg of compound was delivered by oral gavage. Blood was collected via the tail vein into K2EDTA tubes at 5 minutes, 15 minutes, 30 minutes, 1 hour, 2 hours, 4 hours, 8 hours and 24 hours after dosing. The blood was centrifuged at 2000 g for 5 minutes at 4° C. to obtain plasma. The plasma was extracted with acetonitrile and the level of compound was analyzed by LC/MS/MS. The level of compound in plasma was calculated from a standard curve in rat plasma. The IV clearance (L/h/kg) and area under the curve (h*ng/mL) were calculated using WinNonLin software. The dose adjusted area under the curve for the IV and oral dosing were used to calculate the oral bioavailability.
Pharmacokinetic properties were assessed in a rat cassette dosing experiment. The IV clearance (IV Clr.) is in units of L/hr/kg. The oral maximum plasma concentration (PO Cmax) is in units of ng/ml. The oral plasma half-life (PO T½) is in units of hours. The oral area under the curve (PO AUC) is in units of hours*ng/ml. The fraction absorbed by the oral route (F %) is a percentage of the oral area under the curve to the IV area under the curve, dose adjusted.

HDAC1 = HDAC1 (Homo sapiens (Human), UniProt Q13547); assay: HDAC enzyme assay HDAC1; format: biochemical
HDAC1, sequence (Q13547 whole entry): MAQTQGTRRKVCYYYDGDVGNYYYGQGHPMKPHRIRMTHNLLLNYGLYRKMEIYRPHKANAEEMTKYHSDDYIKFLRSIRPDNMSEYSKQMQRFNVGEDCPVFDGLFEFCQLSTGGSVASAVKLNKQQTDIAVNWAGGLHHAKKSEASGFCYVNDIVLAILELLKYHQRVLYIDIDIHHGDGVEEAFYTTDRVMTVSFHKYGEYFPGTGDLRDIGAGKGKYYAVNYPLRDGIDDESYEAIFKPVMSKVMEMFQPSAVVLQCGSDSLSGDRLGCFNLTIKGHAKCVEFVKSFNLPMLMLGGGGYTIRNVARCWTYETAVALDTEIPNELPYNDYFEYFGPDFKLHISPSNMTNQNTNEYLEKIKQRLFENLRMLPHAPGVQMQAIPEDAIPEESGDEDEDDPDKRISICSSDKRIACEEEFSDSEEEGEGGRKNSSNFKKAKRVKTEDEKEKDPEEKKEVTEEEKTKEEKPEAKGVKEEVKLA

HDAC2 = HDAC2 (Homo sapiens (Human), UniProt Q92769); assay: HDAC enzyme assay HDAC2; format: biochemical
HDAC2, sequence (Q92769 whole entry): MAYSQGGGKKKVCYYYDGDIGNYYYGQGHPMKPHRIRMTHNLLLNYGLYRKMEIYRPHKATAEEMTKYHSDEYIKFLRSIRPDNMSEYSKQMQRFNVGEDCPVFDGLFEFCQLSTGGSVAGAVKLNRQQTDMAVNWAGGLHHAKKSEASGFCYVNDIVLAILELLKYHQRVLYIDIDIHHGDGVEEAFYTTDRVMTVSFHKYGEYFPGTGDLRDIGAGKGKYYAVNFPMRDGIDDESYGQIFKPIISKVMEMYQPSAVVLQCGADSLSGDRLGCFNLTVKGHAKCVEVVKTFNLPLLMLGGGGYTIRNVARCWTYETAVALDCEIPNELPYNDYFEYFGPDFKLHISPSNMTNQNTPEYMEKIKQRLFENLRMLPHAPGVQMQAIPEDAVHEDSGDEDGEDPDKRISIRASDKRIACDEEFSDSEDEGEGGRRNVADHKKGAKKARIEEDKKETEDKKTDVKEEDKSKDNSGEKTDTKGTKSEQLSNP
Protocol: Compounds for testing were diluted in DMSO to 50 fold the final concentration and a ten-point three-fold dilution series was made. The compounds were diluted in assay buffer (50 mM HEPES, pH 7.4, 100 mM KCl, 0.001% Tween-20, 0.05% BSA, 20 μM TCEP) to 6-fold their final concentration. The HDAC enzymes (purchased from BPS Biosciences) were diluted to 1.5-fold their final concentration in assay buffer. The tripeptide substrate and trypsin at 0.05 μM final concentration were diluted in assay buffer at 6-fold their final concentration. The final enzyme concentrations used in these assays were 3.3 ng/ml (HDAC1), 0.2 ng/ml (HDAC2) and 0.08 ng/ml (HDAC3). The final substrate concentrations used were 16 μM (HDAC1), 10 μM (HDAC2) and 17 μM (HDAC3).
Five μl of compounds and 20 μl of enzyme were added to wells of a black, opaque 384 well plate in duplicate. Enzyme and compound were incubated together at room temperature for 10 minutes. Five μl of substrate was added to each well, the plate was shaken for 60 seconds and placed into a Victor 2 microtiter plate reader. The development of fluorescence was monitored for 60 min and the linear rate of the reaction was calculated. The IC50 was determined using Graph Pad Prism by a four parameter curve fit.

HDAC3 = HDAC3 (Homo sapiens (Human), UniProt O15379); assay: HDAC enzyme assay HDAC3; format: biochemical
HDAC3, sequence (O15379 whole entry): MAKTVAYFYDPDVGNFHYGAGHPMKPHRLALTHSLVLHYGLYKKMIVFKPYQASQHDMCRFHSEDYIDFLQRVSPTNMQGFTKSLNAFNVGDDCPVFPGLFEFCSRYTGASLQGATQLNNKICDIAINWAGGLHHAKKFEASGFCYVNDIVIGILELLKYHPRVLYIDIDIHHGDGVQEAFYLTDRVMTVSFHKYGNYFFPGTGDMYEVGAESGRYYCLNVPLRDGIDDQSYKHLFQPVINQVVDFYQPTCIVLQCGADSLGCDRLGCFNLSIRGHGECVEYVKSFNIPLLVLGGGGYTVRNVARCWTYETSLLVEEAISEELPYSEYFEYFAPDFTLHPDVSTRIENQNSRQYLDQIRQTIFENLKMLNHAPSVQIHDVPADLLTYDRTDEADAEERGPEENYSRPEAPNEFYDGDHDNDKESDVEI
HDAC3, sequence (Q9Y618 395-489 partner): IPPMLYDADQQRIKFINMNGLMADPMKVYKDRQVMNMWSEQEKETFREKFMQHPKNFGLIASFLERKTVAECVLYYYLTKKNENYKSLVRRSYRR
Protocol: Compounds for testing were diluted in DMSO to 50 fold the final concentration and a ten-point three-fold dilution series was made. The compounds were diluted in assay buffer (50 mM HEPES, pH 7.4, 100 mM KCl, 0.001% Tween-20, 0.05% BSA, 20 μM TCEP) to 6-fold their final concentration. The HDAC enzymes (purchased from BPS Biosciences) were diluted to 1.5-fold their final concentration in assay buffer. The tripeptide substrate and trypsin at 0.05 μM final concentration were diluted in assay buffer at 6-fold their final concentration. The final enzyme concentrations used in these assays were 3.3 ng/ml (HDAC1), 0.2 ng/ml (HDAC2) and 0.08 ng/ml (HDAC3). The final substrate concentrations used were 16 μM (HDAC1), 10 μM (HDAC2) and 17 μM (HDAC3). Five μl of compounds and 20 μl of enzyme were added to wells of a black, opaque 384 well plate in duplicate. Enzyme and compound were incubated together at room temperature for 10 minutes. Five μl of substrate was added to each well, the plate was shaken for 60 seconds and placed into a Victor 2 microtiter plate reader. The development of fluorescence was monitored for 60 min and the linear rate of the reaction was calculated. The IC50 was determined using Graph Pad Prism by a four parameter curve fit. In Table 4 below, letter designations are defined as follows: […]

[3] = plasma, oral AUC to IV AUC, dose adjusted

hERG, sequence (Q12809 whole entry): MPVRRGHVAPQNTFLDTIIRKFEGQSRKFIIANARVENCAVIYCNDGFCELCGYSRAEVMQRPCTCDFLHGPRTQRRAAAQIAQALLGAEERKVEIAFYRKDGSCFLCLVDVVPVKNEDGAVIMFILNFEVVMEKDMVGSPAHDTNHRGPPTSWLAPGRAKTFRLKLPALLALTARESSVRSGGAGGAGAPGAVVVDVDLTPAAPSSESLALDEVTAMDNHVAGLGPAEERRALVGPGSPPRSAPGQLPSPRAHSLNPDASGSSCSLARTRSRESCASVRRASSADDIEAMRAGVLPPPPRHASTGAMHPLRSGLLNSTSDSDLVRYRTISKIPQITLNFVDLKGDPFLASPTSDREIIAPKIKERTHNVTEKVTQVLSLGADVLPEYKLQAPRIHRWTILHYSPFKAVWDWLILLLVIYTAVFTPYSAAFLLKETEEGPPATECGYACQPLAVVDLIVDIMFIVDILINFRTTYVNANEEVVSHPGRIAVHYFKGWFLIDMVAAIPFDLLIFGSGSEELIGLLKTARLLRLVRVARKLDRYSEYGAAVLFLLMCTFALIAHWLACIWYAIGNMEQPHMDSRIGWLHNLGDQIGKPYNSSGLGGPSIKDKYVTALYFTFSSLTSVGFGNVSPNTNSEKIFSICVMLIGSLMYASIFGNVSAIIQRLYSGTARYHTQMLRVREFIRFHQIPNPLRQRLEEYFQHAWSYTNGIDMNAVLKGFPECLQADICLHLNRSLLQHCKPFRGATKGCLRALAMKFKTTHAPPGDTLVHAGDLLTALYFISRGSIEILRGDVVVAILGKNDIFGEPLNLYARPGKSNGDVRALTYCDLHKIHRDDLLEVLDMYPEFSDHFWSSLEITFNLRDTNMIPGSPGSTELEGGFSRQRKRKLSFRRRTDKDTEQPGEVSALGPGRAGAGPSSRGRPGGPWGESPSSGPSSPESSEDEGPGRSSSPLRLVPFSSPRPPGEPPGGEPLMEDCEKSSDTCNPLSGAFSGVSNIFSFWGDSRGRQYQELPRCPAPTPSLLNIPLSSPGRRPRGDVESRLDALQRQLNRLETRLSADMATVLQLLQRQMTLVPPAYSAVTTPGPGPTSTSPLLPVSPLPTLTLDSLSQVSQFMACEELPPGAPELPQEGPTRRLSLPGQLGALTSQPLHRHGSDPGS

Structure (SMILES) | IC50 (hERG; 34 °C, tail current) | IC50 (HDAC1) | IC50 (HDAC2) | IC50 (HDAC3) | also measured
Nc1ccccc1NC(=O)c1ccc2nc(N3CCNCC3)ccc2c1 [Compound 001] | > 30000 nM |  |  |  | 
Nc1ccc(-c2ccccc2)cc1NC(=O)c1ccc(N2CCNCC2)nc1 [Compound 006] | 5100 nM |  |  |  | IC50 [1]: > 10000 nM
Nc1ccc(-c2cccs2)cc1NC(=O)c1ccc(N2CCNCC2)nc1 [Compound 007] | 8600 nM |  |  |  | IC50 [1]: > 10000 nM
Nc1ccccc1NC(=O)c1cc2ccc(N3CCNCC3)cc2cn1 [Compound 021] | 4200 nM |  |  |  | bioavailability [2, 3]: 89.8%; IV clearance ([2]; IV 1 mg/kg, plasma): 94.3 mL/min/kg; AUC ([2]; PO 5 mg/kg, plasma): 763 ng·h/mL; Cmax ([2]; PO 5 mg/kg, plasma): 68 ng/mL; half-life ([2]; PO 5 mg/kg, plasma): 3.2 h
Nc1ccc(-c2ccoc2)cc1NC(=O)c1cnc2cc(N3CCNCC3)ccc2c1 [Compound 025] |  |  |  |  | IC50 [1]: > 10000 nM
Nc1ccc(-c2ccncc2)cc1NC(=O)c1cnc2cc(N3CCNCC3)ccc2c1 [Compound 026] | > 100000 nM |  |  |  | 
CN1CCN(c2ccc3cc(C(=O)Nc4cc(-c5ccco5)ccc4N)ncc3c2)CC1 [Compound 029] | 5200 nM |  |  |  | 
CN1CCN(c2ncc(C(=O)Nc3cc(-c4cccs4)ccc3N)s2)CC1 [Compound 030] |  |  |  |  | IV Clr. ([2]; IV 1 mg/kg, plasma): 8 mL/min/kg; PO AUC ([2]; PO 5 mg/kg, plasma): 15260 ng·h/mL; PO Cmax ([2]; PO 5 mg/kg, plasma): 944 ng/mL; PO T½ ([2]; PO 5 mg/kg, plasma): 12.8 h; F % ([2]; oral AUC to IV AUC, dose adjusted): 170%; IC50 [1]: > 10000 nM
Nc1ccc(-c2ccc(F)cc2)cc1NC(=O)c1ccc2nc(N3CCNCC3)ccc2c1 [Compound 035] |  | < 10 nM | 10 to 500 nM | 10 to 500 nM | bioavailability [2, 3]: 70.5%; IV clearance ([2]; IV 1 mg/kg, plasma): 2.83 mL/min/kg; AUC ([2]; PO 5 mg/kg, plasma): 20200 ng·h/mL; Cmax ([2]; PO 5 mg/kg, plasma): 1870 ng/mL; half-life ([2]; PO 5 mg/kg, plasma): 4.4 h
Nc1ccc(-c2ccc(F)cc2)cc1NC(=O)c1ccc(N2CCNCC2)nc1 [Compound 036] |  | < 10 nM | 10 to 500 nM | 10 to 500 nM | bioavailability [2, 3]: 69.1%; IV clearance ([2]; IV 1 mg/kg, plasma): 7 mL/min/kg; AUC ([2]; PO 5 mg/kg, plasma): 7280 ng·h/mL; Cmax ([2]; PO 5 mg/kg, plasma): 500 ng/mL; half-life ([2]; PO 5 mg/kg, plasma): 7.3 h
Nc1ccc(-c2ccc(F)cc2)cc1NC(=O)c1ccc(N2CCNCC2)cn1 [Compound 038] |  | < 10 nM | 10 to 500 nM | 10 to 500 nM | IC50 (hERG; unit inferred): 2500 nM
Nc1ccc(-c2cccs2)cc1NC(=O)c1cnc(N2CCNCC2)cn1 [Compound 040] |  | < 10 nM | < 10 nM | 10 to 500 nM | bioavailability [2, 3]: 151%; IV clearance ([2]; IV 1 mg/kg, plasma): 26.7 mL/min/kg; AUC ([2]; PO 5 mg/kg, plasma): 3340 ng·h/mL; Cmax ([2]; PO 5 mg/kg, plasma): 211 ng/mL; half-life ([2]; PO 5 mg/kg, plasma): 16.7 h
Nc1ccc(-c2ccc(F)cc2)cc1NC(=O)c1ccc(N2CCNCC2)s1 [Compound 068] |  | < 10 nM | 10 to 500 nM | 10 to 500 nM | 
Nc1ccc(-c2ccccc2)cc1NC(=O)c1cc(N2CCNCC2)cs1 [Compound 069] |  | 10 to 500 nM | 10 to 500 nM | > 500 nM | 
CN1CCN(c2ccc(C(=O)Nc3cc(-c4ccccc4)ccc3N)cn2)CC1 [Compound 070] |  | < 10 nM | 10 to 500 nM | 10 to 500 nM | 
Nc1ccc(-c2cccnc2)cc1NC(=O)c1ccc(N2CCNCC2)nc1 [Compound 072] |  | 10 to 500 nM | 10 to 500 nM | 10 to 500 nM | 
Nc1ccc(-c2ccccn2)cc1NC(=O)c1ccc(N2CCNCC2)nc1 [Compound 073] |  | 10 to 500 nM | 10 to 500 nM | > 500 nM | 
